This experiment relates to HeLa cells. Description: Confirmation of location of nanosphere in cells (confocal microscope). As to conditions: HeLa cells 1×10^5, 1.25 μg/ml. It counts as cell-based. As to the method: In order to observe cancer cell targeting of nanospheres of the biocompatible material sample in which the hydroxypropyl methylcellulose of Example 1 was bonded to porfimer sodium by an ester bond, that is, the accumulation location and accumulation rate in cancer cells, HeLa cells (1×10^5 cells) were treated with each of 1.25 μg/ml of the nanospheres of the biocompatible material sample in which the hydroxypropyl methylcellulose prepared in Example 1 was bonded to porfimer sodium by an ester bond and 1.25 μg/ml of unmodified porfimer sodium as a control and then the location in cells over time was observed using a confocal microscope.

Take “porfimer sodium [unmodified porfimer sodium]”: the “location in cells over time” value was “located at different sites in cells”.

Source of the values: patent US11654195B2, “Eco-friendly smart photosensitizer and photo-stem cell therapy product comprising same” (priority 2019, dated 2023).
